Consider 22 molecules from patent US9550803B2, “Method to improve antiviral activity of nucleotide analogue drugs” (priority 2011, dated 2017).

Where two headings read alike, the source gives them in different places. Bounds are passed on as bounds.

One data set in a line: in vitro. As to conditions: human.
Data set [1] concerns human cytomegalovirus (HCMV). In words: microbe, parasite or virus in culture. The note with it: read-out: Antiviral activity, IC50 HCMV. It counts as cell-based.
In the next data set the test system is cowpox virus. In words: microbe, parasite or virus in culture. The data set is classed as cell-based. The note with it: read-out: Antiviral activity, IC50 Cowpox.
In another data set the test system is vaccinia virus. Description: microbe, parasite or virus in culture. It counts as cell-based. The note with it: read-out: Antiviral activity, IC50 Vaccinia.
The mark [2] stands for this setting: Human betaherpesvirus 5, HFF, 240 h.
Setting [3] is: Orthopoxvirus vaccinia, HFF, 72 h.

What is called IC50 is the concentration at which inhibition is half-maximal. In the case of `CCCCCCCCCCCCNC(=O)[C@@H](N)Cc1ccc(OP2(=O)CO[C@@H](Cn3cnc4c(N)ncnc43)CO2)cc1` (stereo partly drawn) [Compound 8b, O-[(5S)-5-[(6-Amino-9H-purin-9-yl)methyl]-2-oxido-1,4,2-dioxaphosphinan-2-yl]-N-dodecyl-(L)-tyrosinamide], in the data set “in vitro”, the CC50 came out at 15 µM. Also, the concentration for half-maximal inhibition (IC50) in data set [1] (setting [2]) is less than 0.001 nM.

In the data set “in vitro”, `CCCCCCCCCCCCCCNC(=O)[C@@H](N)Cc1ccc(OP2(=O)CO[C@@H](Cn3cnc4c(N)ncnc43)CO2)cc1` (stereo partly drawn) [Compound 8c, O-[(5S)-5-[(6-Amino-9H-purin-9-yl)methyl]-2-oxido-1,4,2-dioxaphosphinan-2-yl]-N-tetradecyl-(L)-tyrosinamide] showed a CC50 of 15 µM. Further, the IC50 in data set [1] (setting [2]) is less than 0.001 nM.

In “in vitro”, `CCCCCCCCCCCCCCCCNC(=O)[C@@H](N)Cc1ccc(OP2(=O)CO[C@@H](Cn3cnc4c(N)ncnc43)CO2)cc1` (stereo partly drawn) [Compound 8d, O-[(5S)-5-[(6-Amino-9H-purin-9-yl)methyl]-2-oxido-1,4,2-dioxaphosphinan-2-yl]-N-hexadecyl-(L)-tyrosinamide] returned a CC50 of 11 µM. The concentration for half-maximal inhibition (IC50) with cowpox virus (Cowpox virus, HFF, 72 h) is less than 0.1 µM; in data set [1] (setting [2]) it was less than 0.001 nM; in the data set on vaccinia virus (setting [3]), 0.006 µM.

With `Nc1ncnc2c1ncn2C[C@H]1COP(=O)(O)CO1` [(S)-cHPMPA, reference compound], the IC50 in the data set on cowpox virus was found to be 2.5 µM; in data set [1], 1500 nM; in the data set with vaccinia virus it was 1 µM. In the data set with KB cells, this molecule had a CC50 greater than 100 µM.

In the case of `C[C@H](Cn1cnc2c(N)nc(N)nc21)OCP(=O)(O)O` [(R)-PMPDAP, reference compound], the IC50 with cowpox virus was greater than 100 µM; in data set [1] it was greater than 100000 nM; in the data set on vaccinia virus, greater than 100 µM. Also, the CC50 with KB cells is greater than 100 µM.

Turning to `CCCCCCCCCCCCCCNC(=O)[C@@H](N)Cc1ccc(OP(=O)(O)CO[C@H](CO)Cn2cnc3c(N)ncnc32)cc1` [Compound 9c, O-[([[(2S)-1-(6-Amino-9H-purin-9-yl)-3-hydroxypropan-2-yl]oxy]methyl)(hydroxy)-phosphoryl]-N-tetradecyl-(L)-tyrosinamide], the CC50 in “in vitro” turned out to be 20 µM. Besides, the half-maximal inhibitory concentration (IC50) in data set [1] (setting [2]) is less than 0.001 nM.

`CCCCCCCCCCCCCCCCCCNC(=O)[C@@H](N)Cc1ccc(OP2(=O)CO[C@@H](Cn3cnc4c(N)ncnc43)CO2)cc1` (stereo partly drawn) [Compound 8e, O-[(5S)-5-[(6-Amino-9H-purin-9-yl)methyl]-2-oxido-1,4,2-dioxaphosphinan-2-yl]-N-octadecyl-(L)-tyrosinamide] yielded a CC50 in “in vitro” of 10 µM. In addition, in data set [1] (setting [2]), the IC50 was less than 0.001 nM.

For `CCCCCCCCCCCCCCCCNC(=O)[C@@H](N)Cc1ccc(OP2(=O)CO[C@@H](Cn3ccc(N)nc3=O)CO2)cc1` (stereo partly drawn) [Compound 8f, O-[(5S)-5-[(4-amino-2-oxopyrimidin-1(2H)-yl)methyl]-2-oxido-1,4,2-dioxaphosphinan-2-yl]-N-hexadecyl-(L)-tyrosinamide], in “in vitro”, the CC50 was found to be 15 µM. In data set [1] (setting [2]), the half-inhibitory concentration (IC50) is less than 0.001 nM.

On to `Nc1nc(O)c2ncn(COC(CO)CO)c2n1` [DHPG, Ganciclovir, reference compound], for which the 50% inhibitory concentration (IC50) in data set [1] (setting [2]) turned out to be 3000 nM.

The molecule `CCCCCCCCNC(=O)[C@@H](N)Cc1ccc(OP2(=O)CO[C@@H](Cn3cnc4c(N)ncnc43)CO2)cc1` (stereo partly drawn) [Compound 8a, O-[(5S)-5-[(6-Amino-9H-purin-9-yl)methyl]-2-oxido-1,4,2-dioxaphosphinan-2-yl]-N-octyl-(L)-tyrosinamide] returned a CC50 in “in vitro” of 100 µM. The half-maximal inhibitory concentration (IC50) is 3 µM in the data set with cowpox virus (Cowpox virus, HFF, 72 h); 300 nM in data set [1] (setting [2]); 1.5 µM in the data set with vaccinia virus (setting [3]).

`CC(=NNC(N)=S)c1ccccn1` [Compound 3L, 2-Acetylpyridine thiosemicarbazone, reference compound] gave a CC50 in the data set “in vitro” of 2 µM.

On to `CCCCCCCCCCCCCCCCNC(=O)[C@@H](N)Cc1ccc(OP(=O)(O)CO[C@H](CO)Cn2ccc(N)nc2=O)cc1` [Compound 9f, O-[([[(2S)-1-(4-amino-2-oxopyrimidin-(2H)-yl)-3-hydroxypropan-2-yl]oxy]methyl)-(hydroxy)phosphoryl]-N-hexadecyl-(L)-tyrosinamide], for which the CC50 in the data set with KB cells amounted to 90 µM. Also, the half-inhibitory concentration (IC50) in data set [1] was less than 0.001 nM.

As to `CCCCCCCCCCCCNC(=O)[C@@H](N)Cc1ccc(OP(=O)(O)CO[C@H](CO)Cn2cnc3c(N)ncnc32)cc1` [Compound 9b, O-[([[(2S)-1-(6-Amino-9H-purin-9-yl)-3-hydroxypropan-2-yl]oxy]methyl)(hydroxy)-phosphoryl]-N-dodecyl-(L)-tyrosinamide], the CC50 in the data set “in vitro” stood at 15 µM. Besides, the IC50 in data set [1] (setting [2]) was less than 0.001 nM.

Regarding `Nc1ncnc2c1ncn2C[C@@H](CO)OCP(=O)(O)O` [(S)-HPMPA, (S)-9-(3hydroxy-2-phosphonyl-methoxypropyl)adenine, reference compound], the figures for the half-maximal inhibitory concentration (IC50) (in the data set with cowpox virus; in data set [1]; in the data set on vaccinia virus) were 20 µM, 6000 nM and 2.5 µM, respectively. This molecule also showed a CC50 with KB cells greater than 100 µM.

`Nc1ccn(C[C@@H](CO)OCP(=O)(O)O)c(=O)n1` [(S)-HPMPC, cidofovir, reference compound] gave a CC50 in “in vitro” greater than 100 µM. For the same molecule, the IC50 was found to be 25 µM in the data set with cowpox virus (Cowpox virus, HFF, 72 h); 300 nM in data set [1] (setting [2]); 10 µM with vaccinia virus (setting [3]).

Molecule `CCCCCCCCCCCCCCCCCCNC(=O)[C@@H](N)Cc1ccc(OP(=O)(O)CO[C@H](CO)Cn2cnc3c(N)ncnc32)cc1` [Compound 9e, O-[([[(2S)-1-(6-Amino-9H-purin-9-yl)-3-hydroxypropan-2-yl]oxy]methyl)-(hydroxy)-phosphoryl]-N-octadecyl-(L)-tyrosinamide] gave a CC50 in “in vitro” of 10 µM. Further, in data set [1] (setting [2]), the IC50 was less than 0.001 nM.

For `CCCCCCCCNC(=O)[C@@H](N)Cc1ccc(OP(=O)(O)CO[C@H](C)Cn2cnc3c(N)nc(N)nc32)cc1` [Compound 15a, O-[({[(2R)-1-(2,6-diamino-9H-purin-9-yl)propan-2-yl]oxy}methyl)(hydroxy)phosphoryl]-N-octyl-L-tyrosinamide], the CC50 in the data set “in vitro” was greater than 100 µM. For the same molecule, the concentration for half-maximal inhibition (IC50) with cowpox virus (Cowpox virus, HFF, 72 h) is greater than 100 µM; in data set [1] (setting [2]) it was greater than 100000 nM; in the data set with vaccinia virus (setting [3]), greater than 100 µM.

In turn, `CCCCCCCCCCCCCCCCNC(=O)[C@@H](N)Cc1ccc(OP(=O)(O)CO[C@H](CO)Cn2cnc3c(N)ncnc32)cc1` [Compound 9d, O-[([[(2S)-1-(6-Amino-9H-purin-9-yl)-3-hydroxypropan-2-yl]oxy]methyl)(hydroxy)-phosphoryl]-N-hexadecyl-(L)-tyrosinamide] had a CC50 in “in vitro” of 15 µM. For the same molecule, the concentration for half-maximal inhibition (IC50) in the data set on cowpox virus (Cowpox virus, HFF, 72 h) was less than 0.1 µM; in data set [1] (setting [2]), less than 0.001 nM; with vaccinia virus (setting [3]), 0.003 µM.

Regarding `CCCCCCCCNC(=O)[C@@H](N)Cc1ccc(OP(=O)(O)CO[C@H](CO)Cn2cnc3c(N)ncnc32)cc1` [Compound 9a, O-[([[(2S)-1-(6-Amino-9H-purin-9-yl)-3-hydroxypropan-2-yl]oxy]methyl)(hydroxy)-phosphoryl]-N-octyl-(L)-tyrosinamide], the IC50 in data set [1] (setting [2]) is less than 100 nM.

`CCCCCCCCCCCCCCCCNC(=O)[C@@H](N)Cc1ccc(OP(=O)(O)COCCn2cnc3c(N)ncnc32)cc1` [Compound 14b, O-[{[2-(6-Amino-9H-purin-9-yl)ethoxy]methyl}(hydroxy)phosphoryl]-N-hexadecyl-L-tyrosinamide] gave a CC50 in “in vitro” of 15 µM. Besides, the half-maximal inhibitory concentration (IC50) in the data set with cowpox virus (Cowpox virus, HFF, 72 h) stood at 20 µM; in data set [1] (setting [2]) it was 2500 nM; in the data set with vaccinia virus (setting [3]) it was 4 µM.

The molecule `CCCCCCCCNC(=O)[C@@H](N)Cc1ccc(OP(=O)(O)COCCn2cnc3c(N)ncnc32)cc1` [Compound 14a, O-[{[2-(6-Amino-9H-purin-9-yl)ethoxy]methyl}(hydroxy)phosphoryl]-N-octyl-L-tyrosinamide] yielded a CC50 in “in vitro” of 100 µM. Also, the IC50 was greater than 100 µM in the data set on cowpox virus (Cowpox virus, HFF, 72 h); 35000 nM in data set [1] (setting [2]); 50 µM in the data set with vaccinia virus (setting [3]).

Regarding `Nc1ncnc2c1ncn2CCOCP(=O)(O)O` [PMEA, reference compound], the IC50 in the data set with cowpox virus is greater than 100 µM; in data set [1] it was 25000 nM; in the data set with vaccinia virus it was greater than 100 µM. Further, the CC50 in the data set on KB cells was greater than 100 µM.
